# Data as given in BindingDB's records for doi:10.1021/jm990397l (University of Groningen, 2000).
# Molecular target: 5-HT1D receptor (Bos taurus)
# Test: Inhibition affinity against 5-HT-1D receptor in bovine caudate nucleus using radio binding assay
structure (smiles),measurement,value
"Cc1nc(-c2ccc(-c3ccc(C(=O)Nc4ccc(OS(=O)(=O)C(F)(F)F)c(N5CCN(C)CC5)c4)cc3)c(C)c2)no1 [Trifluoro-methanesulfonic acid 4-{[2'-methyl-4'-(5-methyl-[1,2,4]oxadiazol-3-yl)-biphenyl-4-carbonyl]-amino}-2-(4-methyl-piperazin-1-yl)-phenyl ester]",IC50,> 1000 nM
